Assay results: patent publication US20250161453A1, “LIGHT-ACTIVATABLE, SUSTAINED-EXPOSURE ETHANOL INJECTION” (University of Maryland, College Park, priority 2022, published 2025)

How the values were obtained:
[1] = Stability of BPD stock solution; format: physicochemical; conditions: 5 mg BPD powder in 1 mL dimethyl sulfoxide, wrapped in aluminum foil
Protocol: To prepare the BPD stock solution, 5 mg of the BPD powder was dissolved with 1 mL of dimethyl sulfoxide in a 2 mL cryovial container. The molarity of the sample was confirmed with a microplate reader using the established molar extinction coefficient of BPD in dimethyl sulfoxide (DMSO; ˜34,895 M^−1 cm^−1 at 687 nm). The container was wrapped in aluminum foil and stored in a −20° C. freezer.

[2] = Singlet oxygen production (Singlet Oxygen Sensor Green) in phantom punch biopsies; conditions: 20 μM
Protocol: For the tumor-mimicking mechanical phantom, 5 mm-deep portions of the phantom were removed via a biopsy tool with a diameter of 6.4 mm and placed into a 96-well, clear flat-bottom microplate. Singlet oxygen production was determined using Singlet Oxygen Sensor Green (SOSG) and a microplate reader before irradiation. The SOSG fluorescence was measured with excitation/emission wavelengths of 504/525 nm. The samples were then irradiated with a 690 nm continuous-wave laser at various radiant exposures, and singlet oxygen production was measured using SOSG and the microplate reader after irradiation. The difference between the obtained SOSG fluorescence values between pre- and post-irradiance samples constituted the relative singlet oxygen production of that particular punch biopsy sample.
Table 4 details a strategy for measuring the singlet oxygen production of a sample (e.g., phantom specimen from a punch biopsy). […] 0 μM (EC-Ethanol only), phantom only, and BPD only (dissolved in DMSO) groups were included as negative controls, while the Rose Bengal group (type II photosensitizer capable of generating singlet oxygen via 525 nm light absorption) was included as a positive control. This strategy can be applied to estimate the relative production of singlet oxygen of photosensitizers in other liquid needle injections.
Upon red light (690 nm) activation of BPD-EC-EtOH, the fluorescence signal generated from BPD can be used for imaging of the depot, as shown in FIG. 6E.

Compound | stability of reconstituted stock solution (in words) [1] | Post-irradiation RFU ([2]; SOSG fluorescence 504/525 nm) [RFU] | Pre-irradiation RFU ([2]; SOSG fluorescence 504/525 nm) [RFU] | Relative singlet oxygen production (SOSG fluorescence difference) ([2]; difference post- minus pre-irradiation) [RFU]
benzoporphyrin derivative [BPD] | generally stable at −20 °C for several months | – | – | –
O=C([O-])c1c(Cl)c(Cl)c(Cl)c(Cl)c1-c1c2cc(I)c(=O)c(I)c-2oc2c(I)c([O-])c(I)cc12.[Na+].[Na+] [Rose Bengal] | – | 64703 | 18345 | 46358
